pIC50: −log10 of the molar value. Read-outs that look alike come from different tables or passages of the source. Square brackets hold non-standard residues; d marks the D form. Peptide text beside a SMILES is read from it. NMeThr(4R-Me,4-(CH2)6NHAc) = CN[C@H](C(=O)O)[C@H](O)[C@H](C)CCCCCCNC(C)=O; NMeL = CN[C@@H](CC(C)C)C(=O)O; NMeV = CN[C@H](C(=O)O)C(C)C; dNMeA = CN[C@H](C)C(=O)O; Abu = CC[C@H](N)C(=O)O
Experiments:
[1] = biological target: cyclophilins A, B, D, and G; experiment: Cyclophilin isomerase assay, all isoforms tested; format: biochemical
Protocol: Cyclophilin isomerase activity was measured with an assay described by [Kofron et al. (1991)] with adaptations to 96-well plates. In this assay cyclophilins catalyze cis-to-trans isomerization of a proline peptide bond in a nitroanalide-coupled peptide substrate followed by cleavage of the trans-conformer peptide by α-chymotrypsin, release of the p-nitroaniline chromogen, and quantitation of p-nitroaniline by absorbance at 410 nm. All solutions were pre-equilibrated, and all assays were conducted at 4°C. Plates were preloaded with 5 µl peptide solution consisting of N-succinyl-alanine-alanine-proline-phenylalanine-p-nitroanilide (S7388; Sigma-Aldrich) and 400 mM lithium chloride (310468; Sigma-Aldrich) in anhydrous trifluoroethanol (T63002; Sigma-Aldrich). […] Cis-peptide represented 55% of the peptide isomers, based on initial reaction bursts, and therefore peptide concentration was corrected to 55% of input in subsequent calculations. […] Absorbance measurements with a BMG Polarstar Galaxy plate reader were begun immediately and made at 6-second intervals for 6 minutes. Reaction curves were represented by increases in optical density 410 nm as a function of reaction time. […]

[2] = tested on: NFAT promoter luciferase reporter, Jurkat cells; experiment: NFAT luciferase reporter assay in Jurkat cells; format: cell-based, human; details: for pIC50: 18 hours, read-out: NFAT–Luc IC50; for NFAT–Luc IC50 Fold Difference: CRV431 vs CsA
Protocol: (§1) The luciferase reporter assays employed Jurkat cells stably transfected with gene constructs consisting of a luciferase gene plus human nuclear factor of activated T cells (NFAT) or interleukin-2 (IL-2) promoter elements (J1621 and J1651; Promega). The NFAT construct contained a DNA binding site only for NFAT, whereas the IL-2 construct contained binding sites for NFAT, nuclear factor κ-light-chain-enhancer of activated B cells, and activating protein-1 transcription factors. Cells were cultured in 96-well plates at 100,000 cells/well in RPMI 1640 medium (11875-093; Thermo Fisher) supplemented with 5% FBS (12483020; Thermo Fisher). Cells were activated either by precoating high protein-binding plates with 3 µg/ml anti-CD3 (UCHT clone) and anti-CD28 (CD28.2 clone) (BioLegend LEAF antibodies) or by adding phorbol myristate acetate (PMA; P8139; Sigma-Aldrich) to 15 ng/ml and A23187 ionophore (C7522; Sigma-Aldrich) to 0.75 µM. […] Cells were harvested after 18 hours of incubation, and luciferase was quantified with Promega Bio-Glo reagent (G7940; Promega) and measurement with a luminescence plate reader. Data were normalized to DMSO controls (100% stimulation) and to wells without antibody or PMA plus A23187 stimulation.

[3] = tested on: IL-2 promoter luciferase reporter, Jurkat cells; experiment: IL-2 luciferase reporter assay in Jurkat cells; format: cell-based, human; details: for pIC50: 18 hours, read-out: IL-2–Luc IC50; for IL-2–Luc IC50 Fold Difference: CRV431 vs CsA
Protocol: as §1

NTCP = biological target: T1, NTCP (Homo sapiens, UniProt Q14973); experiment: Drug transporter inhibition, NTCP; format: in vitro ADME
T1 construct: expressed in transfected cells
T1 sequence (Q14973 whole entry): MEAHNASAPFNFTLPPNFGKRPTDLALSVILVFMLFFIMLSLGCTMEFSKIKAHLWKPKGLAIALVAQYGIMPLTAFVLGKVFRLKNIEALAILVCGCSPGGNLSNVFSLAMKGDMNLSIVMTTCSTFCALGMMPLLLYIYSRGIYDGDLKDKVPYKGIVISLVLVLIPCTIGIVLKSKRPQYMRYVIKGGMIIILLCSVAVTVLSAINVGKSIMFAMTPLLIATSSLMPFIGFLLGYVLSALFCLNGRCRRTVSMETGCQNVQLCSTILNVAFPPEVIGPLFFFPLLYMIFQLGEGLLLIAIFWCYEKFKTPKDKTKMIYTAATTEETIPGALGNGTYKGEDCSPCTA
Protocol: (§2) Briefly, PGP and breast cancer resistance protein inhibition was assessed by measuring the bidirectional transport of substrates across cell monolayers in transwell culture plates. Efflux ratios were represented as (apical-to-basal flux)/(basal-to-apical flux), and efflux ratios were plotted relative to CRV431 concentration to derive IC50 values. Bile salt export pump (BSEP) and multidrug resistance protein (MRP)1 inhibition was assessed by measuring substrate accumulation in membrane vesicles prepared from insect Sf9 cells and recombinantly expressing BSEP and MRP2 (Genomembrane). Inhibition of all other transporters was assessed by measuring substrate accumulation in cells recombinantly expressing the transporter. Known inhibitors of each transporter were used as positive controls for the assays. […] Specific, ATP-dependent uptake was determined by subtracting uptake in negative control vesicles and cells not expressing the transporters, and secondly by subtracting uptake in the absence of ATP in the assays. Specific, ATP-dependent uptake was plotted as a function of CRV431 concentrations and fitted to nonlinear regressions to obtain IC50 values.

MATE-2 = biological target: T2, MATE-2 (Homo sapiens, UniProt Q86VL8); experiment: Drug transporter inhibition, MATE-2; format: in vitro ADME; details: MATE-2, HEK293
T2 construct: expressed in transfected cells
Protocol: Inhibition of all other transporters was assessed by measuring substrate accumulation in cells recombinantly expressing the transporter. Known inhibitors of each transporter were used as positive controls for the assays. […] Specific, ATP-dependent uptake was determined by subtracting uptake in negative control vesicles and cells not expressing the transporters, and secondly by subtracting uptake in the absence of ATP in the assays. Specific, ATP-dependent uptake was plotted as a function of CRV431 concentrations and fitted to nonlinear regressions to obtain IC50 values.

[4] = tested on: CCl4-induced liver fibrosis in C57BL/6 mice; experiment: Carbon tetrachloride mouse model of liver fibrosis; format: in vivo; details: 50 mg/kg per day oral for 6 weeks, vs vehicle
Protocol: Carbon tetrachloride (CCl4)–induced liver fibrosis was conducted in C57BL/6J male mice starting at 7 weeks of age. Mice were injected intraperitoneally twice per week with 0.5–0.75 ml/kg CCL4 (289116; Sigma-Aldrich) and corn oil (0.05 ml total dose per mouse) for 6 weeks. CRV431, obeticholic acid (OCA, HY-12222; MedChemExpress), and vehicle were administered by daily oral gavage for the entire duration of the study. CRV431 and OCA were dissolved in a self-microemulsifying drug vehicle ([Trepanier et al., 2018]), and then diluted with PBS. CRV431 was administered at 50 mg/kg per day, and OCA was administered at 10 mg/kg per day.
Blood and livers were collected at the end of the NASH and CCl4 studies. In some studies, serum or plasma was isolated from freshly-collected blood, whereas in other studies blood was frozen for later analysis of CRV431 concentration. Livers were immersion-fixed in zinc-formalin and paraffin-embedded for histologic processing. Liver sections were stained with hematoxylin and eosin for assessment of inflammation, ballooning, and steatosis, and with sirius red for assessment of collagen I and III (fibrosis). Sirius red staining was quantified by blinded analysis in one section per liver using ImageJ software. […]

P-gp = P-gp (Homo sapiens, UniProt P08183)
Protocol: as §2

MRP2 [5] = biological target: T3, MRP2 (Homo sapiens, UniProt Q92887)
T3 sequence (Q92887 whole entry): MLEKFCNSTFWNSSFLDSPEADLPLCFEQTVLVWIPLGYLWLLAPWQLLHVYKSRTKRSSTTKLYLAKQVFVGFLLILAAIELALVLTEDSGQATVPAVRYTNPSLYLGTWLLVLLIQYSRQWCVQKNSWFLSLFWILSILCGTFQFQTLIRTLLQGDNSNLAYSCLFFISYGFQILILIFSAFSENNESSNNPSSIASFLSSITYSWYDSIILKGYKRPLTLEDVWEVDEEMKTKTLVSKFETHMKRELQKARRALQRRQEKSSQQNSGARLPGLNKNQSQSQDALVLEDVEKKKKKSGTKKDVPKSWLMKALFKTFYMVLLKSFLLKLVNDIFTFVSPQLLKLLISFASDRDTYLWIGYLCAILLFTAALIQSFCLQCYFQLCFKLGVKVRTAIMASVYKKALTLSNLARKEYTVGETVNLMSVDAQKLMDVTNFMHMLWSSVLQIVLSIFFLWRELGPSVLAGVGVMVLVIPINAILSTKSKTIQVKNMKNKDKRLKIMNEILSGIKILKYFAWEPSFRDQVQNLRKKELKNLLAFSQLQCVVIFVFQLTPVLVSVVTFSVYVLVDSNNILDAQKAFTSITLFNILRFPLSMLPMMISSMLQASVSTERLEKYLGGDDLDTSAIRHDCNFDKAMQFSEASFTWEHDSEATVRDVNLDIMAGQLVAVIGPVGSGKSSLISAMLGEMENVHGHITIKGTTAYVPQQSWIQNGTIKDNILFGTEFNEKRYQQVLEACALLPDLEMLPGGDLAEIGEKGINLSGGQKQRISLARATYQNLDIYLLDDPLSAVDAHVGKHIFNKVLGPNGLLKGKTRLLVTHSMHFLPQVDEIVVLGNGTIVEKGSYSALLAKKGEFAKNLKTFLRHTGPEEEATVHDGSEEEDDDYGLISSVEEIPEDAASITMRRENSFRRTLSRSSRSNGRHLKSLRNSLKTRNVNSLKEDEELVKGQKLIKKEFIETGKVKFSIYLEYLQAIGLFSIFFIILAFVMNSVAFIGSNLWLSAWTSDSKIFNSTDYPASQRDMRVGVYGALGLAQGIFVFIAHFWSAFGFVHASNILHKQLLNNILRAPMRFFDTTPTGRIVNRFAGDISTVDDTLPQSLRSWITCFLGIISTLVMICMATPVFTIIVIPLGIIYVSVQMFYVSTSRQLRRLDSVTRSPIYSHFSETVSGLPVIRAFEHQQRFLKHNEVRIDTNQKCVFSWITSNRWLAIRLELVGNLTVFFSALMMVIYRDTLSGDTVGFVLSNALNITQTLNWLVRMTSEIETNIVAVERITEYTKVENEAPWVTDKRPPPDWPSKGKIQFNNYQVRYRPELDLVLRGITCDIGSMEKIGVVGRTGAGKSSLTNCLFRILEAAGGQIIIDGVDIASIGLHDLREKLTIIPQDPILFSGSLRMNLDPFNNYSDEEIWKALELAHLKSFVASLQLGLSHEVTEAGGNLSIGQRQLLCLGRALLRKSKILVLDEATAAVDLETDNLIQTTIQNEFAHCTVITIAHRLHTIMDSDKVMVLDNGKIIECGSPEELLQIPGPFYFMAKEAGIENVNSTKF
Protocol: (§3) Bile salt export pump (BSEP) and multidrug resistance protein (MRP)1 inhibition was assessed by measuring substrate accumulation in membrane vesicles prepared from insect Sf9 cells and recombinantly expressing BSEP and MRP2 (Genomembrane). Inhibition of all other transporters was assessed by measuring substrate accumulation in cells recombinantly expressing the transporter. Known inhibitors of each transporter were used as positive controls for the assays. […] Specific, ATP-dependent uptake was determined by subtracting uptake in negative control vesicles and cells not expressing the transporters, and secondly by subtracting uptake in the absence of ATP in the assays. Specific, ATP-dependent uptake was plotted as a function of CRV431 concentrations and fitted to nonlinear regressions to obtain IC50 values.

OATP1B1 = OATP1B1 (Homo sapiens, UniProt Q9Y6L6)
Protocol: as §2

OATP1B3 = OATP1B3 (Homo sapiens, UniProt Q9NPD5)
Sequence of OATP1B3 (Q9NPD5 whole entry): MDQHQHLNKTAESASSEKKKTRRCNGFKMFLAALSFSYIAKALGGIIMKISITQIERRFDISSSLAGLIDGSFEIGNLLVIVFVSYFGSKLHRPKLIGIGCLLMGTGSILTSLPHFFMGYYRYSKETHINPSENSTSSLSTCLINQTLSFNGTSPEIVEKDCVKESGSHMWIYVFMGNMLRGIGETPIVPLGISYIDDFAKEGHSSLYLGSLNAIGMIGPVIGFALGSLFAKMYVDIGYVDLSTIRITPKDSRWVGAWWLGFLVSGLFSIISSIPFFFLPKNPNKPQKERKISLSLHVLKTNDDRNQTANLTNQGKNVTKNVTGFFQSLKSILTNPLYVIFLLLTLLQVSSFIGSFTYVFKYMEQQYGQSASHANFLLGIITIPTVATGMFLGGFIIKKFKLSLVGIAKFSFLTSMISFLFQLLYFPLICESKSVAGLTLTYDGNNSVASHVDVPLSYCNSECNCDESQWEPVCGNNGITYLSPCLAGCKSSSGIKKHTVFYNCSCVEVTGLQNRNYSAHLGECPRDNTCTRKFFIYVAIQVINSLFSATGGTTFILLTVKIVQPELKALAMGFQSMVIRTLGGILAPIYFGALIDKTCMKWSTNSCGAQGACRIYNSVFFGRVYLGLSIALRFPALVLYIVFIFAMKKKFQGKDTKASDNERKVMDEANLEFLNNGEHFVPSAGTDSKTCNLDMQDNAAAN
Protocol: as §2

BSEP = BSEP (Homo sapiens, UniProt O95342); experiment: Drug transporter inhibition, BSEP; details: Vesicles
Sequence of BSEP (O95342 whole entry): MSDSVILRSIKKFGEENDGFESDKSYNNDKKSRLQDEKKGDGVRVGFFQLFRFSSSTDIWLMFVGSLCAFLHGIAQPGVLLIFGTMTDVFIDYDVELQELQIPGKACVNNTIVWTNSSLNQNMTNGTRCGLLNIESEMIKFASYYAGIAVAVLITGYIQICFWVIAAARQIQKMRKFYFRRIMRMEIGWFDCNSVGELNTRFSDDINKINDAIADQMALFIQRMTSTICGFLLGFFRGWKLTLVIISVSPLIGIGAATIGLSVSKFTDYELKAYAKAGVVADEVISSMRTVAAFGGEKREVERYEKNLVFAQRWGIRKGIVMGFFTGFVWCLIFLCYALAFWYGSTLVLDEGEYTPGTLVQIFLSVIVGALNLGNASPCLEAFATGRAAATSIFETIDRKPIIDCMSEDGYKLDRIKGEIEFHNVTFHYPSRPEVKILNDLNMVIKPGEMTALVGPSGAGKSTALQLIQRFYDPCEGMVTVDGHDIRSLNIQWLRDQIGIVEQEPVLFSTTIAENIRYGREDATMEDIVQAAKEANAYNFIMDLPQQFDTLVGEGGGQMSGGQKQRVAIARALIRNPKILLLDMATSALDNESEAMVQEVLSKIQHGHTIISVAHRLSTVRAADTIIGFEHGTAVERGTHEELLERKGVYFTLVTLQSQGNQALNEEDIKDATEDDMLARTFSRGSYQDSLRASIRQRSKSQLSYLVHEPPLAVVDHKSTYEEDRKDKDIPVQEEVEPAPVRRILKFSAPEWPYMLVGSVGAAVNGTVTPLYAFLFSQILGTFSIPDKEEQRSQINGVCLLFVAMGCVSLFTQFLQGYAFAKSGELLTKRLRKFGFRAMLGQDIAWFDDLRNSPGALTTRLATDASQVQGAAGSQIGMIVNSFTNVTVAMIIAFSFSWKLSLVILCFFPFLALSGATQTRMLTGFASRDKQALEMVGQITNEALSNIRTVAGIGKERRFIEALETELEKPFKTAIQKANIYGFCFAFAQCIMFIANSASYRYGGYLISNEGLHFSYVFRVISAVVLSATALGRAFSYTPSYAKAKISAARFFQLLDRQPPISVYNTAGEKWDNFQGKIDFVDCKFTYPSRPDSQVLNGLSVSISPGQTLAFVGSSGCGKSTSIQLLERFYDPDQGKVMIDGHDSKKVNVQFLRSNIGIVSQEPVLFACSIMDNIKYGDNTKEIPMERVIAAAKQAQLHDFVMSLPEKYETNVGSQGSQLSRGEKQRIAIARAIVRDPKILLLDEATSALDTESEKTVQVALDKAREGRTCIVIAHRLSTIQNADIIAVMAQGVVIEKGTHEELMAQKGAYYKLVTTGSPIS
Protocol: as §3

MRP2 [6] = biological target: T3, MRP2; experiment: Drug transporter inhibition, MRP2; details: MRP2, Vesicles
Protocol: as §3

OCT2 = OCT2 (Homo sapiens, UniProt O15244); experiment: Drug transporter inhibition, OCT2; details: OCT2, HEK293
Sequence of OCT2 (O15244 whole entry): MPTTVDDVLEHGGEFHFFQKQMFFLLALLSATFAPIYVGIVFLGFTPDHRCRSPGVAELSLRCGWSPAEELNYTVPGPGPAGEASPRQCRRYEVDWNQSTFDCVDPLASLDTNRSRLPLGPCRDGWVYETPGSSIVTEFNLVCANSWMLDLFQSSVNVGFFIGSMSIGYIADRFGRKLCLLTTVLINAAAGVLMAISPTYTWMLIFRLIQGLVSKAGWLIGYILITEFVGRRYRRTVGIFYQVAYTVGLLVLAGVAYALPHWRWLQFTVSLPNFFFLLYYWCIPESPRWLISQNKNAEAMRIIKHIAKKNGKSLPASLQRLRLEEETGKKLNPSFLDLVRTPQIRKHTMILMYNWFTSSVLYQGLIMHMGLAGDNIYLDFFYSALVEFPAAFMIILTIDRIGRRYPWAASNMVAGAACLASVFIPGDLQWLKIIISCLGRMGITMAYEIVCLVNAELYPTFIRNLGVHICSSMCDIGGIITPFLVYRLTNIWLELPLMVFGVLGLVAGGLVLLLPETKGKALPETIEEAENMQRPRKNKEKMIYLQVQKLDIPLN
Protocol: as §3

OAT3 = OAT3 (Homo sapiens, UniProt Q8TCC7); experiment: Drug transporter inhibition, OAT3; details: OAT3, HEK293
Sequence of OAT3 (Q8TCC7 whole entry): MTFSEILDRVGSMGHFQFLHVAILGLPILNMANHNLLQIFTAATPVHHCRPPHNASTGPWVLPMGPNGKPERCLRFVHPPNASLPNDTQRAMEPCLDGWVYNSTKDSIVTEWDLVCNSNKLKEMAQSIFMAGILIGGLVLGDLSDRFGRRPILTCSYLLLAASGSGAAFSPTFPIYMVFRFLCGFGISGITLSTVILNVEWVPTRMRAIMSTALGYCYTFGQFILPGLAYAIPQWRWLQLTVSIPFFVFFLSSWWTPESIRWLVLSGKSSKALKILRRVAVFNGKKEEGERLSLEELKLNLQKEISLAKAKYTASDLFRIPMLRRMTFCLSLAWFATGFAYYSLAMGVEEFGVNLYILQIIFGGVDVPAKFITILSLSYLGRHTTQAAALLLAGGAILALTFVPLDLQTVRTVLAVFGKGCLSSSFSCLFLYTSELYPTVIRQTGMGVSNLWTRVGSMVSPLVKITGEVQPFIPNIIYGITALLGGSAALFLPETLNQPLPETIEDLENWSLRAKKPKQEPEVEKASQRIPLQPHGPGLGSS
Protocol: as §3

[7] = CD3 + CD28 antibodies stimulation

**Q.** How did the pIC50 ([1]; range over Cyp A, G, read-out: IC50 values, all cyclophilin isoforms) turn out when `CC[C@@H]1NC(=O)[C@H]([C@H](O)[C@H](C)CCCCCCNC(C)=O)N(C)C(=O)[C@H](C(C)C)N(C)C(=O)[C@H](CC(C)C)N(C)C(=O)[C@H](CC(C)C)N(C)C(=O)[C@@H](C)NC(=O)[C@H](C)NC(=O)[C@H](CC(C)C)N(C)C(=O)[C@H](C(C)C)NC(=O)[C@H](CC(C)C)N(C)C(=O)[C@@H](C)N(C)C1=O` [CRV431] (cyclo(A[dA][NMeL][NMeL][NMeV][NMeThr(4R-Me,4-(CH2)6NHAc)][Abu][dNMeA][NMeL]V[NMeL])) was run?
**A.** 8.14 to 8.60

**Q.** What about the pIC50 ([1]; range over isoforms A, G (abstract), read-out: Inhibitory constant or IC50 values) of the same compound?
**A.** 8.15 to 9.00

**Q.** And the pIC50 [2, 7]?
**A.** 6.53

**Q.** What about the “NFAT–Luc IC50 Fold Difference” value ([2]; CD3 + CD28 antibodies) of the same compound?
**A.** 65.4

**Q.** What about the “NFAT–Luc IC50 Fold Difference” value ([2]; PMA + A23187) of the same compound?
**A.** 60.2

**Q.** And the pIC50 ([2]; PMA + A23187 stimulation)?
**A.** 6.69

**Q.** And the “times less potent than CsA on Jurkat–NFAT cells” value ([2]; ratio of CRV431 and CsA IC50)?
**A.** ~63 times

**Q.** What about the pIC50 [3, 7] of the same compound?
**A.** 6.51

**Q.** What about the “IL-2–Luc IC50 Fold Difference” value ([3]; CD3 + CD28 antibodies) of the same compound?
**A.** 34.6

**Q.** And the “IL-2–Luc IC50 Fold Difference” value ([3]; PMA + A23187)?
**A.** 36.9

**Q.** And the pIC50 ([3]; PMA + A23187 stimulation)?
**A.** 6.52

**Q.** And the “times less potent than CsA on Jurkat–IL-2 cells” value ([3]; ratio of CRV431 and CsA IC50)?
**A.** approximately 35 times

**Q.** And the “fold lower activity than CsA toward sodium-dependent taurocholic acid cotransporting polypeptide” value (NTCP)?
**A.** 45 fold

**Q.** What about the pIC50 (NTCP; NTCP, HEK293) of the same compound?
**A.** 4.34

**Q.** What about the “CRV431 Inhibitory Potency vs. CsA” value (MATE-2) of the same compound?
**A.** Same (no inhibition)

**Q.** What about the “lowering of the amount of sirius red staining” value [4] of the same compound?
**A.** 43%

**Q.** And the pIC50 (P-gp)?
**A.** < 4.30

**Q.** What about the pIC50 (MRP2 [5]) of the same compound?
**A.** 4.68

**Q.** And the pIC50 (OATP1B1)?
**A.** 6.52

**Q.** And the pIC50 (OATP1B3)?
**A.** 6.22

**Q.** And the “CRV431 Inhibitory Potency vs. CsA” value (BSEP)?
**A.** 3.4× less

**Q.** What about the “CRV431 Inhibitory Potency vs. CsA” value (MRP2 [6]) of the same compound?
**A.** 2.1× less

**Q.** And the “CRV431 Inhibitory Potency vs. CsA” value (OCT2)?
**A.** Same (no inhibition)

**Q.** What about the pIC50 (OCT2) of the same compound?
**A.** < 4.30

**Q.** What about the “CRV431 Inhibitory Potency vs. CsA” value (OAT3) of the same compound?
**A.** >21× more

**Q.** What about the pIC50 (OAT3) of the same compound?
**A.** 6.33
